Converted amounts (≈) assume the structure as drawn.
Assays:
[1] = Isoelectric point (pI) by isoelectrofocusing with bioautography detection; assay type: physicochemical; conditions: IEF technique, polyacrylamide gel
Text: The isoelectrofocusing (IEF) technique coupled with bioautography detection has been used for the determination of the pI of representative compounds of the invention using the following materials: AMPHOLINE carrier ampholytes (40% w/v) were purchased from LKB Produketer AB, Bromma, Sweden. Acrylamide, N,N'-methylenbisacrylamide (BIS), N,N,N',N'-tetramethylethylenediamine (TEMED) and ammonium persulfate were from Bio Rad Laboratorie, Richmond, Calif., USA. Glycerol and Antibiotic agar N. 1 (Grove and Randall medium N. 1) were from E. Merck Darmstadt FRG. GEL FIX polyester sheets were purchased from Serva Feinbiochemica Heidelberg. Phenolindo (2,6-dichlorophenol) came from BDH Chemicals Ltd. Poole, England.
IEF was made on gel slab using a LKB MULITPHOR 2117 cell and a Bio-Rad Power Supply Model 1420A. Slabs of 24.5×11.5 cm and 1 mm thickness were prepared on a sheet of GEL FIX. Polyacrylamide gels with a concentration of 8% T and with a cross-linkage of 4% C (30% T stock solution was prepared by dissolving 28.8 g of acrylamide and 1.2 g of bis-acrylamide in 100 ml distilled water), glycerol, 3.5% v/v, 2% AMPHOLINE, 0.05% ammonium persulphate as catalyst and 0.05% TEMED as accelerator. The carrier ampholite composition for 35 ml gelling solution was as follows:
The electrode solutions, as recommended by LKB for the respective pH range, were:
The gel was cooled to 4° C. with the aid of a LKB 2209 refrigerated constant temperature circulator. After prefocusing for 30 min. at 5 W, the samples (20 μl containing 0.2 to 2.5 μg of antibiotic) were loaded into the slot at the cathodic side. Electrofocusing was performed using 10 W constant power and was completed after 3-31/2 hours with a final potential of 1400 V.
The pH values were determined by dividing a portion of the gel into 1 cm sections, and eluting the individual pieces at room temperature with 1 ml of 10 mM KCl prior to pH readings.
The isoelectric point of each antibiotic was determined by interpolation on a curve obtained by plotting pH values versus the distance from the anode.
Polyacrylamide gel was placed on a 3 mm layer of agar medium N. 1 inoculated with 1% of Bacillus subtilis ATCC 6633 spore (0.5 OD at 600 nm). After 10 min the gel was removed and the plate was incubated overnight at 37° C. and examined for inhibition zones. The contrast between the area of lysis and that of bacterial growth was enhanced by use of Phenolindo(2,6-dichlorophenol) 1% w/v (oxidation-reduction indicator).

E. coli SKF 12140 = test: In vitro antibacterial activity, standard agar-dilution test (MIC); assay type: cell-based; conditions: inoculum about 10^4 CFU/ml, 18-24 h at 37° C.
Procedure: (§1) The culture medium ISOSENSITEST BROTH (Oxoid) and the colture medium TODD-[…] BROTH (Difco) are used for growing staphylococci and streptococci, respectively. Broth cultures are diluted so that the final inoculum is about 10^4 colony forming units/ml (CFU/ml).

[2] = test system: Proteus vulgaris X 19H ATCC 881; test: as above; assay type: cell-based; conditions: inoculum about 10^4 CFU/ml, 18-24 h at 37° C.
Procedure: as §1

[3] = test system: Pseudomonas aeruginosa ATCC 10145; test: as above; assay type: cell-based; conditions: inoculum about 10^4 CFU/ml, 18-24 h at 37° C.
Procedure: as §1

S. aureus ATCC 6538 = test: as above; assay type: cell-based; conditions: inoculum about 10^4 CFU/ml, 18-24 h at 37° C.
Procedure: as §1

S. aureus Tour = test: as above; assay type: cell-based; conditions: inoculum about 10^4 CFU/ml, 18-24 h at 37° C.
Procedure: as §1

[4] = test system: S. epidermidis ATCC 12228; test: as above; assay type: cell-based; conditions: inoculum about 10^4 CFU/ml, 18-24 h at 37° C.
Procedure: as §1

S. faecalis ATCC 7080 = test: as above; assay type: cell-based; conditions: inoculum about 10^4 CFU/ml, 18-24 h at 37° C.
Procedure: as §1

S. pneumoniae UC 41 = test: as above; assay type: cell-based; conditions: inoculum about 10^4 CFU/ml, 18-24 h at 37° C.
Procedure: as §1

S. pyogenes C 203 = test: as above; assay type: cell-based; conditions: inoculum about 10^4 CFU/ml, 18-24 h at 37° C.
Procedure: as §1

S. pyogenes L 49 = test: In vivo test in mice experimentally infected with S. pyogenes L 49 (ED50); conditions: mice infected with S. pyogenes L 49; for ED50, route of administration os.: oral
Acid-base titration (pK) = assay type: physicochemical; conditions: for pK1 / pK2: acid-base titration in METHYLCELLOSOLVE/H2O 4:1 (v/v), 0.01N KOH, salt form per Table IV
Procedure: The following table (Table IV) reports the acid-base titration data of some representative compounds of the invention. The assays were carried out in METHYLCELLOSOLVE/H2 O, 4:1(v/v). A sample is dissolved in METHYLCELLOSOLVE/H2 O, 4:1(v/v) (10 umole in about 20 ml) and then 0.01N HCl (2 ml) is added and the mixture is titrated with 0.01N KOH in the same solvent mixture.

Compound | Isoelectric point (pI) [1] | MIC E. coli SKF 12140 (E. coli SKF 12140) [mg/L] | MIC Proteus vulgaris X 19H ATCC 881 [2] [mg/L] | MIC Pseudomonas aeruginosa ATCC 10145 [3] [mg/L] | MIC S. aureus ATCC 6538 (S. aureus ATCC 6538) [mg/L] | MIC S. aureus Tour (S. aureus Tour) [mg/L] | MIC S. epidermidis ATCC 12228 [4] [mg/L] | MIC S. faecalis ATCC 7080 (S. faecalis ATCC 7080) [mg/L] | MIC S. pneumoniae UC 41 (S. pneumoniae UC 41) [mg/L] | MIC S. pyogenes C 203 (S. pyogenes C 203) [mg/L] | ED50, route of administration os. (S. pyogenes L 49) [mg/kg] | ED50, route of administration s.c (S. pyogenes L 49) [mg/kg] | pK1 (Acid-base titration (pK)) | pK2 (Acid-base titration (pK)) | pK3 (value between brackets) (Acid-base titration (pK); between brackets: due to titration of the carboxylic function of the salifying acid)
CCOC(=O)CNC(=O)C1NC(=O)C2NC(=O)C(NC(=O)C3NC(=O)C4NC(=O)C(Cc5ccc(c(Cl)c5)Oc5cc3cc(c5O)Oc3ccc(cc3Cl)C2OC2OC(CO)C(O)C(O)C2NC(C)=O)NC(=O)C(N)c2ccc(O)c(c2)Oc2cc(O)cc4c2)c2ccc(O)c(c2)-c2c(O)cc(O)cc21 (stereo not shown) [Compound 16] | 7.8 | 128 (≈ 86.1 µM) | > 128 | > 128 | 0.5 (≈ 0.336 µM) | 1 (≈ 0.672 µM) | 0.12 (≈ 0.0807 µM) | 1 (≈ 0.672 µM) | 1 (≈ 0.672 µM) | 0.25 (≈ 0.168 µM) | > 300 | 5 | – | – | –
CCCCN(CCCC)CCCNC(=O)C1NC(=O)C2NC(=O)C(NC(=O)C3NC(=O)C4NC(=O)C(Cc5ccc(c(Cl)c5)Oc5cc3cc(c5O)Oc3ccc(cc3Cl)C2O)NC(=O)C(N)c2ccc(O)c(c2)Oc2cc(O)cc4c2)c2ccc(O)c(c2)-c2c(O)cc(O)cc21 (stereo not shown) [Compound 20] | 8.7 | 8 (≈ 5.85 µM) | 32 (≈ 23.4 µM) | 64 (≈ 46.8 µM) | 0.6 (≈ 0.439 µM) | 0.25 (≈ 0.183 µM) | 0.063 (≈ 0.0461 µM) | 0.25 (≈ 0.183 µM) | 0.12 (≈ 0.0878 µM) | 0.06 (≈ 0.0439 µM) | > 300 | 0.72 | 6.1 | 8.3 | –
CN(C)CCCNC(=O)C1NC(=O)C2NC(=O)C(NC(=O)C3NC(=O)C4NC(=O)C(Cc5ccc(c(Cl)c5)Oc5cc3cc(c5O)Oc3ccc(cc3Cl)C2O)NC(=O)C(N)c2ccc(O)c(c2)Oc2cc(O)cc4c2)c2ccc(O)c(c2)-c2c(O)cc(O)cc21 (stereo not shown) [Compound 18] | 8.9 | 8 (≈ 6.23 µM) | 16 (≈ 12.5 µM) | 32 (≈ 24.9 µM) | 0.06 (≈ 0.0468 µM) | 0.12 (≈ 0.0935 µM) | 0.016 (≈ 0.0125 µM) | 0.12 (≈ 0.0935 µM) | 0.12 (≈ 0.0935 µM) | 0.06 (≈ 0.0468 µM) | 140 | 0.31 | – | – | –
CN1CCN(C(=O)C2NC(=O)C3NC(=O)C(NC(=O)C4NC(=O)C5NC(=O)C(Cc6ccc(c(Cl)c6)Oc6cc4cc(c6O)Oc4ccc(cc4Cl)C3O)NC(=O)C(N)c3ccc(O)c(c3)Oc3cc(O)cc5c3)c3ccc(O)c(c3)-c3c(O)cc(O)cc32)CC1 (stereo not shown) [Compound 23] | 8.0 | 16 (≈ 12.5 µM) | 64 (≈ 50 µM) | 32 (≈ 25 µM) | 0.06 (≈ 0.0468 µM) | 0.12 (≈ 0.0937 µM) | 0.032 (≈ 0.025 µM) | 0.12 (≈ 0.0937 µM) | 0.12 (≈ 0.0937 µM) | 0.12 (≈ 0.0937 µM) | > 300 | 0.95 | 5.6 | 6.8 | –
NC1C(=O)NC2Cc3ccc(c(Cl)c3)Oc3cc4cc(c3O)Oc3ccc(cc3Cl)C(O)C3NC(=O)C(NC(=O)C4NC(=O)C(NC2=O)c2cc(O)cc(c2)Oc2cc1ccc2O)c1ccc(O)c(c1)-c1c(O)cc(O)cc1C(C(=O)NCCN1CCCC1)NC3=O (stereo not shown) [Compound 22] | 8.8 | 8 (≈ 6.18 µM) | 64 (≈ 49.4 µM) | 64 (≈ 49.4 µM) | – | 0.12 (≈ 0.0927 µM) | 0.016 (≈ 0.0124 µM) | 0.12 (≈ 0.0927 µM) | 0.12 (≈ 0.0927 µM) | 0.06 (≈ 0.0463 µM) | > 300 | 1.6 | 6.4 | 7.8 | –
NC1C(=O)NC2Cc3ccc(c(Cl)c3)Oc3cc4cc(c3O)Oc3ccc(cc3Cl)C(O)C3NC(=O)C(NC(=O)C4NC(=O)C(NC2=O)c2cc(O)cc(c2)Oc2cc1ccc2O)c1ccc(O)c(c1)-c1c(O)cc(O)cc1C(C(=O)N1CCN(c2ccccn2)CC1)NC3=O (stereo not shown) [Compound 24] | – | 32 (≈ 23.8 µM) | > 128 | > 128 | 0.06 (≈ 0.0446 µM) | 0.12 (≈ 0.0893 µM) | 0.063 (≈ 0.0469 µM) | 0.12 (≈ 0.0893 µM) | 0.06 (≈ 0.0446 µM) | 0.06 (≈ 0.0446 µM) | > 300 | 0.72 | 5.75 | 7.4 | 6.6
CC(=O)NC1C(OC2c3ccc(c(Cl)c3)Oc3cc4cc(c3O)Oc3ccc(cc3Cl)CC3NC(=O)C(N)c5ccc(O)c(c5)Oc5cc(O)cc(c5)C(NC3=O)C(=O)NC4C(=O)NC3C(=O)NC2C(=O)NC(C(=O)NCCCN(C)C)c2cc(O)cc(O)c2-c2cc3ccc2O)OC(CO)C(O)C1O (stereo not shown) [Compound 13] | 8.9 | 64 (≈ 43.1 µM) | > 128 | > 128 | 0.12 (≈ 0.0807 µM) | 0.12 (≈ 0.0807 µM) | 0.06 (≈ 0.0404 µM) | 0.25 (≈ 0.168 µM) | 0.25 (≈ 0.168 µM) | 0.12 (≈ 0.0807 µM) | > 300 | 2.2 | – | – | –

— patent US5521155A, “Amides of teicoplanin compounds” (Gruppo Lepetit S.p.A, priority 1985, dated 1996)
